Laboratory results from ChEMBL document CHEMBL5247627, “1-Methyl-3-((4-(quinolin-4-yloxy)phenyl)amino)-1H-pyrazole-4-carboxamide derivatives as new rearranged during Transfection (RET) kinase inhibitors capable of suppressing resistant mutants in solvent-front regions” (Eur J Med Chem, 2022).
The source made the active and inactive calls. The rule behind the calls is not given here.

Tests used:
BaF3 [1] = test: Antiproliferative activity against mouse BaF3 cells incubated for 74 to 76 hrs by cell counting kit 8 method; format: functional, cell-based
[2] = Toxicity in CB17-SCID mouse xenografted with BaF3 cells expressing CCDC6-RET G810C assessed as loss of body weight measured at 10 to 30 mg/kg, ip qd administered for 12 days measured every 2 days; format: organism-based; settings: in vivo, 288 h, dose 10-30 mg/kg, time 12 day
BaF3 [3] = settings: Mus musculus, dose <= 100.0 nM, time 4.0 hrs
BaF3 [4] = test: Antitumor activity against mouse BaF3 cells harbouring CCDC6-RET G810C cells xenografted in CB17-SCID mouse assessed as reduction in tumor growth administered intraperitoneally qd administered for 12 days measured every 2 days; format: functional, cell-based; settings: dose 10-30 mg/kg, route ip, time 12.0 day
BaF3 [5] = test: Antitumor activity against mouse BaF3 cells harbouring CCDC6-RET G810C cells xenografted in CB17-SCID mouse assessed as reduction in tumor growth at 10 mg/kg ip qd administered for 12 days measured every 2 days relative to control; format: functional; settings: BaF3, 288 h, time 12 day, read-out: TGI
BaF3 [6] = test: Induction of apoptosis in mouse BaF3 cells harbouring CCDC6-RET G810R assessed as viable cells measured at 33.3 nM for 48 hrs by Annexin V-FITC staining based Guava easyCyte flow cytometric analysis (reference value: 89.5 %); format: functional; settings: read-out: Activity
BaF3 [7] = test: Antitumor activity against mouse BaF3 cells harbouring CCDC6-RET G810C cells xenografted in CB17-SCID mouse assessed as reduction in tumor growth at 30 mg/kg ip qd administered for 12 days measured every 2 days relative to control; format: functional; settings: BaF3, 288 h, time 12 day, read-out: TGI
[8] = molecular target: Proto-oncogene tyrosine-protein kinase receptor Ret/Coiled-coil domain-containing protein 6 (Mus musculus) (UniProt P35546+D3YZP9); test: Inhibition of wild type rearranged during transfection kinase/CCDC6 phosphorylation in mouse BaF3 cells measured at 100 nM for 4 hrs by Western blot analysis; format: cell-based
Chain of Proto-oncogene tyrosine-protein kinase receptor Ret/Coiled-coil domain-containing protein 6 (Mus musculus) (D3YZP9 whole entry, looked up, the tested form may be a part): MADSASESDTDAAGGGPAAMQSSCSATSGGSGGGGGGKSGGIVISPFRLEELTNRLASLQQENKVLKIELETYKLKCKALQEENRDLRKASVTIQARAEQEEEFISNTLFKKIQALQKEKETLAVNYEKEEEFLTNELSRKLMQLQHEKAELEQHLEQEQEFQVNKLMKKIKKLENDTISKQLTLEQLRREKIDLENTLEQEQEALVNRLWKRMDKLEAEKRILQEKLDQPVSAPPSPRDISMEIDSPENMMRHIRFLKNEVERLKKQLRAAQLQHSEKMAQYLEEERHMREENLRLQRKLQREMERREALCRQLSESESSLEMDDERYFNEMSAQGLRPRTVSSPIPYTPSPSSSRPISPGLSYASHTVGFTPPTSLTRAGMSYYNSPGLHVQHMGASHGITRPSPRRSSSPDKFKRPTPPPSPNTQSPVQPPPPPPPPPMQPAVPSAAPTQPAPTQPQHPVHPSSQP
Chain of Proto-oncogene tyrosine-protein kinase receptor Ret/Coiled-coil domain-containing protein 6 (Mus musculus) (P35546 whole entry, looked up, the tested form may be a part): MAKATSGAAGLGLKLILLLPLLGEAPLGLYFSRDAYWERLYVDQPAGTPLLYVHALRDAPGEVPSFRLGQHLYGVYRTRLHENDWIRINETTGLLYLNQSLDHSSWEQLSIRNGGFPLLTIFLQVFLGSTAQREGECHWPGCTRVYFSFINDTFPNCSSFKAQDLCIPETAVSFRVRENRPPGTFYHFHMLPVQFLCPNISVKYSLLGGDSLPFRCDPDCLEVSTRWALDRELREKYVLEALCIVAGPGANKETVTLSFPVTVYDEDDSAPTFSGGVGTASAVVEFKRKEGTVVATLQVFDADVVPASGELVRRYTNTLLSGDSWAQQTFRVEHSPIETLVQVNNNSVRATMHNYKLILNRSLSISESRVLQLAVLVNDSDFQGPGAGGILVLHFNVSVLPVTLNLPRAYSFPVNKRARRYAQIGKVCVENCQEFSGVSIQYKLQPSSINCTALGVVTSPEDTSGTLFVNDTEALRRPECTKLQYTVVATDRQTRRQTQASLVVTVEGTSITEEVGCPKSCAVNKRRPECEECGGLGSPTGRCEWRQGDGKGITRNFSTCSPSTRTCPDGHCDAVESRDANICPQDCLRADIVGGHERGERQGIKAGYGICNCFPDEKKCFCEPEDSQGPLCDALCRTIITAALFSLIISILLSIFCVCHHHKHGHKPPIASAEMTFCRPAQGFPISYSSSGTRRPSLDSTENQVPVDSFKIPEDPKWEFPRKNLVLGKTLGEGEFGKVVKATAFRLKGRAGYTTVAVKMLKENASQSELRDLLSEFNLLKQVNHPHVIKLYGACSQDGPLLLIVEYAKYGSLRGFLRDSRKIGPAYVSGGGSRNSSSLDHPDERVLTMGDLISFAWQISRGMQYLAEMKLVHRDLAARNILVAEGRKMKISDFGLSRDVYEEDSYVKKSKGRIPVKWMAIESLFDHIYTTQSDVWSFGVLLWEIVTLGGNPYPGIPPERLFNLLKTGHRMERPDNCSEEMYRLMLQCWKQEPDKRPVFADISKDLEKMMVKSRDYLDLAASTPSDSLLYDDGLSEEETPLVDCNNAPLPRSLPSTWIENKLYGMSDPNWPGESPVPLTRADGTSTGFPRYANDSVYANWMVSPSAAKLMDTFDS

BaF3 [9] = test: Induction of apoptosis in mouse BaF3 cells harbouring CCDC6-RET G810C assessed as viable cells measured at 100 nM for 48 hrs by Annexin V-FITC staining based Guava easyCyte flow cytometric analysis (reference value: 90.90 %); format: functional; settings: read-out: Activity
[10] = Toxicity in CB17-SCID mouse xenografted with BaF3 cells expressing CCDC6-RET G810C assessed as tolerability measured at 10 to 30 mg/kg, ip qd administered for 12 days; format: organism-based; settings: in vivo, 288 h, dose 10-30 mg/kg, time 12 day
BaF3 [11] = test: Induction of apoptosis in mouse BaF3 cells harbouring CCDC6-RET G810C assessed as early apoptotic cells measured at 100 nM for 48 hrs by Annexin V-FITC staining based Guava easyCyte flow cytometric analysis (reference value: 6.10 %); format: functional
BaF3 [12] = settings: Mus musculus, dose 100.0 nM, time 4.0 hrs
BaF3 [13] = settings: Mus musculus, dose 100.0 nM, time 4.0 hrs; remark: listed apart in the source
BaF3 [14] = test: Induction of apoptosis in mouse BaF3 cells harbouring CCDC6-RET G810C assessed as viable cells measured at 300 nM for 48 hrs by Annexin V-FITC staining based Guava easyCyte flow cytometric analysis (reference value: 90.90 %); format: functional; settings: read-out: Activity
BaF3 [15] = test: Induction of apoptosis in mouse BaF3 cells harbouring CCDC6-RET G810R assessed as necrotic cells measured at 300 nM for 48 hrs by Annexin V-FITC staining based Guava easyCyte flow cytometric analysis (reference value: 0.64 %); format: functional
BaF3 [16] = test: Induction of apoptosis in mouse BaF3 cells harbouring CCDC6-RET G810R assessed as viable cells measured at 300 nM for 48 hrs by Annexin V-FITC staining based Guava easyCyte flow cytometric analysis (reference value: 89.5 %); format: functional; settings: read-out: Activity
BaF3 [17] = test: Induction of apoptosis in mouse BaF3 cells harbouring CCDC6-RET G810R assessed as early apoptotic cells measured at 33.3 nM for 48 hrs by Annexin V-FITC staining based Guava easyCyte flow cytometric analysis (reference value: 6.46 %); format: functional
BaF3 [18] = test: Induction of apoptosis in mouse BaF3 cells harbouring CCDC6-RET G810R assessed as early apoptotic cells measured at 300 nM for 48 hrs by Annexin V-FITC staining based Guava easyCyte flow cytometric analysis (reference value: 6.46 %); format: functional
BaF3 [19] = settings: Mus musculus, dose <= 100.0 nM, time 4.0 hrs; remark: listed apart in the source
BaF3 [20] = test: Antiproliferative activity against mouse BaF3 cells expressing rearranged during transfection kinase V804L-G810C incubated for 74 to 76 hrs by cell counting kit 8 method
BaF3 [21] = test: Antiproliferative activity against mouse BaF3 cells expressing rearranged during transfection kinase G810R-CCDC6 incubated for 74 to 76 hrs by cell counting kit 8 method
BaF3 [22] = test: Induction of apoptosis in mouse BaF3 cells harbouring CCDC6-RET G810R assessed as late apoptotic cells measured at 100 nM for 48 hrs by Annexin V-FITC staining based Guava easyCyte flow cytometric analysis (reference value: 3.4 %); format: functional
BaF3 [23] = test: Induction of apoptosis in mouse BaF3 cells harbouring CCDC6-RET G810C assessed as early apoptotic cells measured at 300 nM for 48 hrs by Annexin V-FITC staining based Guava easyCyte flow cytometric analysis (reference value: 6.10 %); format: functional
BaF3 [24] = test: Induction of apoptosis in mouse BaF3 cells harbouring CCDC6-RET G810C assessed as necrotic cells measured at 100 nM for 48 hrs by Annexin V-FITC staining based Guava easyCyte flow cytometric analysis (reference value: 0.35 %); format: functional
BaF3 [25] = test: Induction of apoptosis in mouse BaF3 cells harbouring CCDC6-RET G810C assessed as necrotic cells measured at 300 nM for 48 hrs by Annexin V-FITC staining based Guava easyCyte flow cytometric analysis (reference value: 0.35 %); format: functional
BaF3 [26] = settings: Mus musculus, CB17-SCID, Tumor/tissue, dose 10-30 mg/kg, route ip, time 13.0 day
BaF3 [27] = test: Induction of apoptosis in mouse BaF3 cells harbouring CCDC6-RET G810C assessed as viable cells measured at 33.3 nM for 48 hrs by Annexin V-FITC staining based Guava easyCyte flow cytometric analysis (reference value: 90.90 %); format: functional; settings: read-out: Activity
BaF3 [28] = settings: Mus musculus, dose 100.0 nM, time 4.0 hrs; remark: listed apart in the source
BaF3 [29] = test: Induction of apoptosis in mouse BaF3 cells harbouring CCDC6-RET G810R assessed as early apoptotic cells measured at 100 nM for 48 hrs by Annexin V-FITC staining based Guava easyCyte flow cytometric analysis (reference value: 6.46 %); format: functional
BaF3 [30] = test: Induction of apoptosis in mouse BaF3 cells harbouring CCDC6-RET G810R assessed as late apoptotic cells measured at 300 nM for 48 hrs by Annexin V-FITC staining based Guava easyCyte flow cytometric analysis (reference value: 3.4 %); format: functional
BaF3 [31] = settings: Mus musculus, dose 100.0 nM, time 4.0 hrs; remark: listed apart in the source

IC50 (BaF3 [1]): > 10000 nM | inhibition [8]: Active | IC50 (BaF3 [20]): 54.2 nM | IC50 (BaF3 [21]): 53.2 nM
SMILES: COc1cc2nccc(Oc3ccc(Nc4nn(C)cc4C(=O)NC45CC6CC(CC(C6)C4)C5)c(F)c3)c2cc1C(N)=O
Activity [2]: Non-Toxic | inhibition (BaF3 [3]): Dose-Dependent Effect | Activity (BaF3 [4]): Dose-Dependent Effect | inhibition in vivo at 10 mg/kg (BaF3 [5]): 17.1% | viability at 0.0333 µM (BaF3 [6]): 91.1% | inhibition in vivo at 30 mg/kg (BaF3 [7]): 66.9% | viability at 0.1 µM (BaF3 [9]): 80.2% | Activity [10]: Non-Toxic | Activity (BaF3 [11]): 17.19% | inhibition (BaF3 [12]): Active | inhibition (BaF3 [13]): Active | viability at 0.3 µM (BaF3 [14]): 43.1% | Activity (BaF3 [15]): 0.24% | viability at 0.3 µM (BaF3 [16]): 63.9% | Activity (BaF3 [17]): 6.47% | Activity (BaF3 [18]): 32.67% | inhibition (BaF3 [19]): Dose-Dependent Effect | Activity (BaF3 [22]): 1.8% | Activity (BaF3 [23]): 53.4% | Activity (BaF3 [24]): 0.25% | Activity (BaF3 [25]): 0.41% | inhibition (BaF3 [26]): Active | viability at 0.0333 µM (BaF3 [27]): 90.8% | inhibition (BaF3 [28]): Active | Activity (BaF3 [29]): 9.4% | Activity (BaF3 [30]): 3.21% | inhibition (BaF3 [31]): Active
